In US20240343704A1, “HALO-SUBSTITUTED AMINO PYRIDINE COMPOUNDS AS INHIBITORS OF THE HAEMATOPOIETIC PROGENITOR KINASE 1 (HPK1)” (priority 2021, published 2024):

What was measured:
[1] = target: T1, Recombinant (1-346) HPK1 (h) (Homo sapiens, UniProt Q92918); assay: HPK1 Human STE Kinase Enzymatic Radiometric Assay; type: biochemical; conditions: read-out: HPK1 IC50 nM Range*
T1 construct: Recombinant (1-346) HPK1 (h) is incubated with 8 mM MOPS pH 7.0
T1 sequence (Q92918 1-346): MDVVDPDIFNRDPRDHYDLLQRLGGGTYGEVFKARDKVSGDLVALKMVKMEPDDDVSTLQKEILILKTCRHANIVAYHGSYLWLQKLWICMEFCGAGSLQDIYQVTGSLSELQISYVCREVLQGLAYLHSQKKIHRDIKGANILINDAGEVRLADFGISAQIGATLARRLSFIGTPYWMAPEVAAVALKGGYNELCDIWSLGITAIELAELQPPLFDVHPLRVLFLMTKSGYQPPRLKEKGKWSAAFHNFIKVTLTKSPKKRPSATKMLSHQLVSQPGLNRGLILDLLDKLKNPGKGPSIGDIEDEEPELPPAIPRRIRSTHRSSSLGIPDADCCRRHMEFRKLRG
Method: A stock solution of 10 mM of test compound is prepared in DMSO. The compound plate was prepared by 3-fold and 9-point serial dilutions. […] The reaction is initiated by The addition of the Mg/ATP mix. After incubation for 40 minutes at RT, the reaction is stopped by the addition of phosphoric acid to a concentration of 0.5%.

Lck (h) = Lck (h) (Homo sapiens, UniProt P06239); assay: Lck Human  Kinase Enzymatic Radiometric Assay; type: biochemical; conditions: read-out: Lck IC50 nM Range*
Lck (h), sequence (P06239 whole entry): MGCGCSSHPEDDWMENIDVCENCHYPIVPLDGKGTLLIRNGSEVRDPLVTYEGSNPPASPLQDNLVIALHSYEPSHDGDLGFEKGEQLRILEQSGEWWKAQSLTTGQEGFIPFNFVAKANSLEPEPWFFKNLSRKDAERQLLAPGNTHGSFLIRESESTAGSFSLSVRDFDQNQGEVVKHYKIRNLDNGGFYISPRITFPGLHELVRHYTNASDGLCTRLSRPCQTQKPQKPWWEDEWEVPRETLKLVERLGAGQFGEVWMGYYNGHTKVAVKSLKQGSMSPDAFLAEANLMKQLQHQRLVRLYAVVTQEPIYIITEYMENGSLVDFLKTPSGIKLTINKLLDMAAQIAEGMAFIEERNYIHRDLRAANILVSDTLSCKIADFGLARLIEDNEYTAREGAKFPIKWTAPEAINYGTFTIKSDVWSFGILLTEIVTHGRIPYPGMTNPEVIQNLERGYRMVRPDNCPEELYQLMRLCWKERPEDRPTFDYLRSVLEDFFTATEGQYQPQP
Procedure, shortened: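 Substrate 33P-incorporation measured by scintillation counting after spotting on P30 filtermat and phosphoric acid washes. Human Lck reacted 40 min at RT in 50 mM Tris pH 7.5 with 10 mM MgAcetate, [gamma-33P]-ATP, 250 uM Cdc2 peptide, 0.1 mM EGTA and 0.1 mM Na3VO4.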

| IC50 [1] [nM] | IC50 (Lck (h)) [nM] | SMILES |
| --- | --- | --- |
| 11 to 100 | > 1000 | CC(=O)N1CCC(Oc2ccc(-c3cc(-c4ccc5c(c4)CCNC5=O)c(N)nc3F)cc2C(F)(F)F)CC1 [I-199, 6-(5-(4-((1-acetylpiperidin-4-yl)oxy)-3-(trifluoromethyl)phenyl)-2-amino-6-fluoropyridin-3-yl)-3,4-dihydroisoquinolin-1(2H)-one] |
| 0.1 to 10 | > 1000 | CC(=O)N1CCN(c2ccc(-c3cc(-c4ccc5c(c4)CCNC5=O)c(N)nc3F)cc2C(F)(F)F)CC1 [I-200, 6-(5-(4-(4-acetylpiperazin-1-yl)-3-(trifluoromethyl)phenyl)-2-amino-6-fluoropyridin-3-yl)-3,4-dihydroisoquinolin-1(2H)-one] |
| 101 to 1000 | > 1000 | Nc1nc(F)c(-c2ccc(OC3CCN(CC(F)(F)F)CC3)c(C(F)(F)F)c2)cc1-c1ccc2c(c1)CCNC2=O [I-201, 6-(2-amino-6-fluoro-5-(4-((1-(2,2,2-trifluoroethyl)piperidin-4-yl)oxy)-3-(trifluoromethyl)phenyl)pyridin-3-yl)-3,4-dihydroisoquinolin-1(2H)-one] |
| 11 to 100 | > 1000 | Nc1nc(F)c(-c2ccc(N3CCN(CC(F)(F)F)CC3)c(C(F)(F)F)c2)cc1-c1ccc2c(c1)CCNC2=O [I-202, 6-(2-amino-6-fluoro-5-(4-(4-(2,2,2-trifluoroethyl)piperazin-1-yl)-3-(trifluoromethyl)phenyl)pyridin-3-yl)-3,4-dihydroisoquinolin-1(2H)-one] |
| 0.1 to 10 | > 1000 | Nc1nc(F)c(-c2ccc(OC3CCN(C(=O)C4CC4)CC3)cc2)cc1-c1ccc2c(c1)CCNC2=O [I-203, 6-(2-amino-5-(4-((1-(cyclopropanecarbonyl)piperidin-4-yl)oxy)phenyl)-6-fluoropyridin-3-yl)-3,4-dihydroisoquinolin-1(2H)-one] |
| 0.1 to 10 | > 1000 | Nc1nc(F)c(-c2ccc3c(c2)OCCCO3)cc1-c1ccc2c(c1)CCNC2=O [I-204, 6-(2-amino-5-(3,4-dihydro-2H-benzo[b][1,4]dioxepin-7-yl)-6-fluoropyridin-3-yl)-3,4-dihydroisoquinolin-1(2H)-one] |
| 0.1 to 10 | > 1000 | Nc1nc(F)c(-c2ccc3c(c2)OCCCO3)cc1-c1cc2c(cc1F)C(=O)NCC2 [I-205, 6-(2-amino-5-(3,4-dihydro-2H-benzo[b][1,4]dioxepin-7-yl)-6-fluoropyridin-3-yl)-7-fluoro-3,4-dihydroisoquinolin-1(2H)-one] |
| 0.1 to 10 | > 1000 | CN1CCCN(S(=O)(=O)c2ccc(-c3cc(-c4ccc5c(c4)CCNC5=O)c(N)nc3F)cc2)CC1 [I-206, 6-(2-amino-6-fluoro-5-(4-((4-methyl-1,4-diazepan-1-yl)sulfonyl)phenyl)pyridin-3-yl)-3,4-dihydroisoquinolin-1(2H)-one] |
| 0.1 to 10 | > 1000 | CN1CCN(S(=O)(=O)c2ccc(-c3cc(-c4ccc5c(c4)CCNC5=O)c(N)nc3F)cc2)CC1 [I-207, 6-(2-amino-6-fluoro-5-(4-((4-methylpiperazin-1-yl)sulfonyl)phenyl)pyridin-3-yl)-3,4-dihydroisoquinolin-1(2H)-one] |
| 0.1 to 10 | > 1000 | CC(C)N1CCN(c2ccc(-c3cc(-c4cc5c(cc4F)C(=O)NCC5)c(N)nc3Cl)cc2)CC1 [I-209, 6-(2-amino-6-chloro-5-(4-(4-isopropylpiperazin-1-yl)phenyl)pyridin-3-yl)-7-fluoro-3,4-dihydroisoquinolin-1(2H)-one] |
| 0.1 to 10 | 101 to 1000 | Nc1nc(F)c(-c2ccc(N3CCN(CC4CC4)CC3)cc2)cc1-c1ccc2c(c1)CCNC2=O [I-210, 6-(2-amino-5-(4-(4-(cyclopropylmethyl)piperazin-1-yl)phenyl)-6-fluoropyridin-3-yl)-3,4-dihydroisoquinolin-1(2H)-one] |
| 0.1 to 10 | > 1000 | CCN1CCN(c2ccc(-c3cc(-c4cc5c(cc4F)C(=O)NCC5)c(N)nc3F)cc2)CC1 [I-211, 6-(2-amino-5-(4-(4-ethylpiperazin-1-yl)phenyl)-6-fluoropyridin-3-yl)-7-fluoro-3,4-dihydroisoquinolin-1(2H)-one] |
| 0.1 to 10 | > 1000 | COCCN1CCN(c2ccc(-c3cc(-c4cc5c(cc4F)C(=O)NCC5)c(N)nc3F)cc2)CC1 [I-212, 6-(2-amino-6-fluoro-5-(4-(4-(2-methoxyethyl)piperazin-1-yl)phenyl)pyridin-3-yl)-7-fluoro-3,4-dihydroisoquinolin-1(2H)-one] |
| 0.1 to 10 | > 1000 | Nc1nc(F)c(-c2ccc(N3CCN(CC4CC4)CC3)cc2)cc1-c1cc2c(cc1F)C(=O)NCC2 [I-213, 6-(2-amino-5-(4-(4-(cyclopropylmethyl)piperazin-1-yl)phenyl)-6-fluoropyridin-3-yl)-7-fluoro-3,4-dihydroisoquinolin-1(2H)-one] |
| 0.1 to 10 | > 1000 | COCCN1CCC2(CC1)OCc1cc(-c3cc(-c4ccc5c(c4)CCNC5=O)c(N)nc3F)ccc1O2 [I-214, 6-(2-amino-6-fluoro-5-(1′-(2-methoxyethyl)-4H-spiro[benzo[d][1,3]dioxine-2,4′-piperidin]-6-yl)pyridin-3-yl)-3,4-dihydroisoquinolin-1(2H)-one] |
| 0.1 to 10 | > 1000 | COCCN1CCC2(CC1)CC(=O)c1cc(-c3cc(-c4ccc5c(c4)CCNC5=O)c(N)nc3F)ccc1O2 [I-215, 6-(6-amino-2-fluoro-5-(1-oxo-1,2,3,4-tetrahydroisoquinolin-6-yl)pyridin-3-yl)-1′-(2-methoxyethyl)spiro[chromane-2,4′-piperidin]-4-one] |
| 0.1 to 10 | > 1000 | COCCN1CCC2(CCc3cc(-c4cc(-c5ccc6c(c5)CCNC6=O)c(N)nc4F)ccc3O2)CC1 [I-216, 6-(2-amino-6-fluoro-5-(1′-(2-methoxyethyl)spiro[chromane-2,4′-piperidin]-6-yl)pyridin-3-yl)-3,4-dihydroisoquinolin-1(2H)-one] |
| 0.1 to 10 | > 1000 | COCCN1CCC(Oc2ccc(-c3cc(-c4ccc5c(c4)CCNC5=O)c(N)nc3F)cc2C#N)CC1 [I-217, 5-(6-amino-2-fluoro-5-(1-oxo-1,2,3,4-tetrahydroisoquinolin-6-yl)pyridin-3-yl)-2-((1-(2-methoxyethyl)piperidin-4-yl)oxy)benzonitrile] |
| 0.1 to 10 | > 1000 | CC(C)N1CCC2(CC1)OCc1cc(-c3cc(-c4ccc5c(c4)CCNC5=O)c(N)nc3F)ccc1O2 [I-218, 6-(2-amino-6-fluoro-5-(1′-isopropyl-4H-spiro[benzo[d][1,3]dioxine-2,4′-piperidin]-6-yl)pyridin-3-yl)-3,4-dihydroisoquinolin-1(2H)-one] |
| 0.1 to 10 | > 1000 | Nc1nc(F)c(-c2ccc(N3CCNCC3)c(C(F)(F)F)c2)cc1-c1cc2c(cc1F)C(=O)NCC2 [I-219, 6-(2-amino-6-fluoro-5-(4-(piperazin-1-yl)-3-(trifluoromethyl)phenyl)pyridin-3-yl)-7-fluoro-3,4-dihydroisoquinolin-1(2H)-one] |
| 0.1 to 10 | > 1000 | COCC(=O)N1C[C@H]2C[C@@]2(c2ccc(-c3cc(-c4ccc5c(c4)CCNC5=O)c(N)nc3F)cc2)C1 [I-220, 6-(2-amino-6-fluoro-5-(4-((1R,5S)-3-(2-methoxyacetyl)-3-azabicyclo[3.1.0]hexan-1-yl)phenyl)pyridin-3-yl)-3,4-dihydroisoquinolin-1(2H)-one] |
| 11 to 100 | > 1000 | CC(=O)N1CCN(c2ccc(-c3cc(-c4cc5c(cc4F)C(=O)NCC5)c(N)nc3F)cn2)CC1 [I-221, 6-(6′-(4-acetylpiperazin-1-yl)-6-amino-2-fluoro-[3,3′-bipyridin]-5-yl)-7-fluoro-3,4-dihydroisoquinolin-1(2H)-one 2,2,2-trifluoroacetate] |
| 0.1 to 10 | > 1000 | CC(C)N1CCC2(CC1)CC(=O)c1cc(-c3cc(-c4ccc5c(c4)CCNC5=O)c(N)nc3F)ccc1O2 [I-222, 6-(6-amino-2-fluoro-5-(1-oxo-1,2,3,4-tetrahydroisoquinolin-6-yl)pyridin-3-yl)-1′-isopropylspiro[chromane-2,4′-piperidin]-4-one] |
| 0.1 to 10 | > 1000 | CC(C)N1CCC2(CCc3cc(-c4cc(-c5ccc6c(c5)CCNC6=O)c(N)nc4F)ccc3O2)CC1 [I-223, 6-(2-amino-6-fluoro-5-(1′-isopropylspiro[chromane-2,4′-piperidin]-6-yl)pyridin-3-yl)-3,4-dihydroisoquinolin-1(2H)-one] |
| 0.1 to 10 | > 1000 | CC(C)N1CCC(Oc2ccc(-c3cc(-c4ccc5c(c4)CCNC5=O)c(N)nc3F)cc2C#N)CC1 [I-224, 5-(6-amino-2-fluoro-5-(1-oxo-1,2,3,4-tetrahydroisoquinolin-6-yl)pyridin-3-yl)-2-((1-isopropylpiperidin-4-yl)oxy)benzonitrile] |

| SMILES | IC50 [1] [nM] | IC50 (Lck (h)) [nM] |
| --- | --- | --- |
| COCCN1CCC(OC)(c2ccc(-c3cc(-c4ccc5c(c4)CCNC5=O)c(N)nc3F)cc2)CC1 [I-208, 6-(2-amino-6-fluoro-5-(4-(4-methoxy-1-(2-methoxyethyl)piperidin-4-yl)phenyl)pyridin-3-yl)-3,4-dihydroisoquinolin-1(2H)-one] | 0.1 to 10 | > 1000 |
